Structures are written as SMILES. Calls of active or inactive are those of the source. The calls are words filed in the database; no cut-off is given here. A value given as a limit tells only on which side of the number the result lay.

Data set [1] is described as follows: Stability of the compound in pH 6 solution at 10^-4 M after 24 hrs by HPLC analysis. As to conditions: read-out: Stability. The data set is classed as physicochemical.
The next data set relates to NHDF. Nature of the data set: Potency index, ratio of compound effect to rosmarinic acid effect for cytoprotection against phototoxicity in human NHDF cells assessed as increase in cell viability at 3.9 uM preincubated for 60 mins followed by 7.5 J/cm2 UVA irradiation and measured after 24 hrs by neutral red uptake assay. The format is functional.
The nature of data set [2]: Stability of the compound in pH 6 solution at 10^-4 M after 1 hr by HPLC analysis. The data set is classed as physicochemical. The note with it: read-out: Stability.
Data set [3] is described as follows: Phototoxicity in human NHDF cells assessed as cell viability at 7.8 uM preincubated for 60 mins followed by 5 J/cm2 UVA irradiation and measured after 24 hrs by neutral red uptake assay relative to control. The format is cell-based. As to conditions: read-out: Activity.
A short description of data set [4]: Cytotoxicity in human HaCaT cells assessed as cell viability at 31.3 uM after 24 hrs by neutral red uptake assay relative to control. The data set is classed as cell-based. As to conditions: read-out: Activity.
Data set [5] concerns HaCaT. The experiment in a line: Cytoprotection against phototoxicity in human HaCaT cells assessed as increase in cell viability at 3.9 to 31.3 uM preincubated for 60 mins followed by 10 J/cm2 UVA irradiation and measured after 24 hrs by neutral red uptake assay. The format is functional, cell-based.
Data set [6] can be described thus: Phototoxicity in human NHDF cells assessed as cell viability at 125 uM preincubated for 60 mins followed by 5 J/cm2 UVA irradiation and measured after 24 hrs by neutral red uptake assay relative to control. The format is cell-based. The note with it: read-out: Activity.
Data set [7] can be described thus: Stability of the compound in pH 3 solution at 10^-4 M after 1 hr by HPLC analysis. The note with it: read-out: Stability. The format is physicochemical.
Data set [8] in a line: Phototoxicity in human NHDF cells assessed as cell viability at 62.5 uM preincubated for 60 mins followed by 5 J/cm2 UVA irradiation and measured after 24 hrs by neutral red uptake assay relative to control. The data set is classed as cell-based. As to conditions: read-out: Activity.
A further data set has as its system Amaranthus caudatus. The experiment in a line: Growth promoting activity in Amaranthus caudatus var. atropurpurea seeds by measuring betacyanin at 10^-4 mol/L after 48 hrs relative to control. The format is functional.
The subject of data set [9] is HaCaT. Nature of the data set: Cytoprotection against phototoxicity in human HaCaT cells assessed as increase in cell viability at 3.9 uM preincubated for 60 mins followed by 10 J/cm2 UVA irradiation and measured after 24 hrs by neutral red uptake assay. The data set is classed as functional, cell-based.
The next data set relates to Nicotiana tabacum. Nature of the data set: Growth promoting activity in tobacco callus assessed as callus weight at 10^-5 mol/L after 4 weeks relative to control. The format is functional.
A short description of data set [10]: Stability of the compound in pH 3 solution at 10^-4 M after 24 hrs by HPLC analysis. The format is physicochemical. As to conditions: read-out: Stability.

With `c1csc(CNc2ncnc3c2ncn3C2CCCO2)c1` (stereo not drawn), the remaining at 24 h, 100 µM in data set [1] amounted to 100%; in data set [10], 0.8%. Further, the Ratio in the data set on NHDF is reported as >6. The remaining at 1 h, 100 µM in [2] came out at 100%; in [7] it was 94.6%. For the same compound, the viability at 24 h, 7.8 µM in data set [3] came to 102%. In [4], the viability at 24 h, 31.3 µM came to 102%. Also, the outcome in the data set with HaCaT [5] and with HaCaT [9] was Active. The viability at 24 h, 125 µM in data set [6] was 106%. Further, the viability at 24 h, 62.5 µM in data set [8] was 103%. Besides, the Activity in the data set with Amaranthus caudatus was found to be 81%; with Nicotiana tabacum, 105%.

The values above are taken from ChEMBL document CHEMBL4229381, “New cytokinin derivatives possess UVA and UVB photoprotective effect on human skin cells and prevent oxidative stress” (Eur J Med Chem, 2018).
